Data from article PMC10813393 (Biomolecules, 2023).
Read-outs that look alike come from different tables or passages of the source.

Columns and labels:
[1] = tested on: α-SARS-CoV-2 spike pseudotyped virus particles; type: cell-based; conditions: luciferase 72 h post-transduction
[2] = tested on: o-SARS-CoV-2 spike pseudotyped virus particles (BA.2 lineage); type: cell-based; conditions: luciferase 72 h post-transduction
[3] = cell-pretreatment protocol: VERO cells with FA 20 μM or L7OG 5 μM for 2 h

SMILES | entry of α-SARS-CoV-2 pseudovirus (in words) ([1]; […], VERO cells) | entry of α-SARS-CoV-2 pseudovirus (in words) [1, 3] | entry of o-SARS-CoV-2 pseudovirus (in words) ([2]; […], VERO cells) | entry of o-SARS-CoV-2 pseudovirus (in words) [2, 3]
Nc1nc(=O)c2nc(CNc3ccc(C(=O)N[C@@H](CCC(=O)O)C(=O)O)cc3)cnc2[nH]1 [FA, folic acid, reference compound] | blocked the entry | neither L7OG nor FA inhibited the entry | blocked the entry | neither L7OG nor FA inhibited the entry
O=C(O)[C@H]1O[C@@H](Oc2cc(O)c3c(=O)cc(-c4ccc(O)c(O)c4)oc3c2)[C@H](O)[C@@H](O)[C@@H]1O [Compound L7OG, luteolin-7-O-glucuronide] |  | neither L7OG nor FA inhibited the entry |  | neither L7OG nor FA inhibited the entry
